Assay results published in ChEMBL document CHEMBL5550160, “Leveraging a rationally designed veliparib-based anilide eliciting anti-leukemic effects for the design of pH-responsive polymer nanoformulation” (Eur J Med Chem, 2024).
Active and inactive are the calls of the source. The calls are words filed in the database; no cut-off is given here.

Assays:
[1] = target: T1, Histone deacetylase 1 (Homo sapiens, UniProt Q13547); assay: Inhibition of HDAC1 (unknown origin) using p53 residues 379 to 382 [RHKK(Ac)] as fluorogenic substrate assessed as residual activity at 1.23 x 10^-7M (reference value: 98.06%); conditions: dose 1.23 10^-7M
T1 sequence (Q13547 whole entry, the tested form may be a part): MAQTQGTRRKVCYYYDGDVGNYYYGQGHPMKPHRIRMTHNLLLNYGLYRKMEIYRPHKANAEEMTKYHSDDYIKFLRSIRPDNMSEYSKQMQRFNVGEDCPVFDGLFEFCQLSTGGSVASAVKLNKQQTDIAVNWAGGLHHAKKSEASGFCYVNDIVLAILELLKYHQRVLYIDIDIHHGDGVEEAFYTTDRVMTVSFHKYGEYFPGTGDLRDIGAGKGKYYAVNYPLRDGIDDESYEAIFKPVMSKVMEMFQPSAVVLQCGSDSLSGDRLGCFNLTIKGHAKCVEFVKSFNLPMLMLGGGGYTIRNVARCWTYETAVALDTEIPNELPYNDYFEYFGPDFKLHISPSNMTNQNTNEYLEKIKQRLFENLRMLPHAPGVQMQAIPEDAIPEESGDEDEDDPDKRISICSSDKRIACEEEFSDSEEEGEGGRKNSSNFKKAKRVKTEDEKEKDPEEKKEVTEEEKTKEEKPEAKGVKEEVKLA

[2] = target: Histone deacetylase 2 (Homo sapiens, UniProt Q92769); assay: Inhibition of HDAC2 (unknown origin) assessed as residual activity at 1.1 x 10^-6M (reference value: 99.81%); conditions: dose 1.1 10^-6M
Sequence of Histone deacetylase 2 (Q92769 whole entry, the tested form may be a part): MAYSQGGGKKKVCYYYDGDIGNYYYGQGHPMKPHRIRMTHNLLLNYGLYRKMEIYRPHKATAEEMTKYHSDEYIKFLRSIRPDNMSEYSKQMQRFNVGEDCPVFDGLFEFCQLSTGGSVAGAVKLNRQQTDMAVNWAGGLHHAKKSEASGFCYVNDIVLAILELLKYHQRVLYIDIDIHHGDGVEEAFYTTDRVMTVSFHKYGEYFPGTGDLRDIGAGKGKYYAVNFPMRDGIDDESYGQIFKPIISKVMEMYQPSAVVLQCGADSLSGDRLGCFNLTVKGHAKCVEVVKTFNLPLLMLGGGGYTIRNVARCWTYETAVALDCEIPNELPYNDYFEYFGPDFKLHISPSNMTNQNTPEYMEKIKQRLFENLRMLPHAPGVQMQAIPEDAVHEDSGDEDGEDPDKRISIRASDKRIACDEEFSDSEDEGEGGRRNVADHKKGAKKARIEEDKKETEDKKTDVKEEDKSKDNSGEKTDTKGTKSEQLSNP

[3] = target: Histone deacetylase 3 (Homo sapiens, UniProt O15379); assay: Inhibition of HDAC3 (unknown origin) using p53 residues 379 to 382 [RHKK(Ac)] as fluorogenic substrate assessed as residual activity at 4.57 x 10^-9M (reference value: 103.08%); conditions: dose 4.57 10^-9M
Sequence of Histone deacetylase 3 (O15379 whole entry, the tested form may be a part): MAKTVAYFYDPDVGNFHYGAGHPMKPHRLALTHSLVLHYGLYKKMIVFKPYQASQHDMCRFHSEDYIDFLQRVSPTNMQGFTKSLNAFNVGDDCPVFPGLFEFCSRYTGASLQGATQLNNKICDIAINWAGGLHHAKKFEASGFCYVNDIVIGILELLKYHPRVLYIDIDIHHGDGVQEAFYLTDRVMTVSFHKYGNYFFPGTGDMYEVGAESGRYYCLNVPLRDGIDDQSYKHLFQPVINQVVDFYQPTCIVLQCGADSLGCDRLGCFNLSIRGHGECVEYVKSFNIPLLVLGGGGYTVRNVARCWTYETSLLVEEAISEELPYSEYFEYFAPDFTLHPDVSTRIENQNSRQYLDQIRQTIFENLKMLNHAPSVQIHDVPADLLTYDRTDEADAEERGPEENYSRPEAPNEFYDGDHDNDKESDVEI

[4] = target: T2, Protein deacetylase HDAC6 (Homo sapiens) (UniProt Q9UBN7); assay: Inhibition of HDAC6 (unknown origin) using p53 residues 379 to 382 [RHKK(Ac)] as fluorogenic substrate assessed as residual activity at 3.70 x 10^-7M (reference value: 101.06%); conditions: dose 3.7 10^-7M
T2 sequence (whole entry): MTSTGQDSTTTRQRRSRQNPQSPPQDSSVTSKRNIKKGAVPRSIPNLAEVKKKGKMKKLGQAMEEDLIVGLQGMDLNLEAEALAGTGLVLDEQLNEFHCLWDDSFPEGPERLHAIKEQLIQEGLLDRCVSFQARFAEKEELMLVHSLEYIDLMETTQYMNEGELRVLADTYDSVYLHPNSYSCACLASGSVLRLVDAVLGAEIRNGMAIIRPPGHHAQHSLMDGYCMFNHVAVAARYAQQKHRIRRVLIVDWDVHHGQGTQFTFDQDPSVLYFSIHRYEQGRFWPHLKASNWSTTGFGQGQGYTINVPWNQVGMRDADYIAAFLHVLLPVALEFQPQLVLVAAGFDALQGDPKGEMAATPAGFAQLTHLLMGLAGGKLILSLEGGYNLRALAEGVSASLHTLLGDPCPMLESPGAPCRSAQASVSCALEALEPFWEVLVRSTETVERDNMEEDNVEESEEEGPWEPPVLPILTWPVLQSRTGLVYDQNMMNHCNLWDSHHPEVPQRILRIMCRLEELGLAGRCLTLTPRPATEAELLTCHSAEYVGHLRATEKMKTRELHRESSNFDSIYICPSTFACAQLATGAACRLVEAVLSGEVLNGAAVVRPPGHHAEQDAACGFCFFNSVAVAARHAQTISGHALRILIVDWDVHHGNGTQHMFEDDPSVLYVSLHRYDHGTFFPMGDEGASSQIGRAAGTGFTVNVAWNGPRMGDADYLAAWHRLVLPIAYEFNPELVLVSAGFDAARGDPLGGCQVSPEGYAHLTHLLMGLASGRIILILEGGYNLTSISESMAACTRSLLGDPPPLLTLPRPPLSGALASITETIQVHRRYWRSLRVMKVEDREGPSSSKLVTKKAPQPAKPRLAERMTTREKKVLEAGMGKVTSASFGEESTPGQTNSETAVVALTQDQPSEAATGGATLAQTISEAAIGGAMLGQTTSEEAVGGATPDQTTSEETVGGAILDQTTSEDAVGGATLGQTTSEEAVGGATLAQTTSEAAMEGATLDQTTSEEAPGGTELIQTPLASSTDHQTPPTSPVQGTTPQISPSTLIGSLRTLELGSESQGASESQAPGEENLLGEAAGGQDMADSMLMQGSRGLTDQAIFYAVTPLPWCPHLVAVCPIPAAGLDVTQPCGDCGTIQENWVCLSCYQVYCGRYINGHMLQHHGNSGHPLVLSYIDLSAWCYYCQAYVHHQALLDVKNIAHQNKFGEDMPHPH

[5] = target: T2, Protein deacetylase HDAC6 (Homo sapiens); assay: Inhibition of HDAC6 (unknown origin) using p53 residues 379 to 382 [RHKK(Ac)] as fluorogenic substrate assessed as residual activity at 5.08 x 10^-10M (reference value: 101.06%); conditions: dose 5.08 10^-10M
[6] = target: T3, Histone deacetylase 8 (Homo sapiens) (UniProt Q9BY41); assay: Inhibition of HDAC8 (unknown origin) assessed as residual activity at 3.70 x 10^-7M (reference value: 100%); conditions: dose 3.7 10^-7M
T3 sequence (whole entry): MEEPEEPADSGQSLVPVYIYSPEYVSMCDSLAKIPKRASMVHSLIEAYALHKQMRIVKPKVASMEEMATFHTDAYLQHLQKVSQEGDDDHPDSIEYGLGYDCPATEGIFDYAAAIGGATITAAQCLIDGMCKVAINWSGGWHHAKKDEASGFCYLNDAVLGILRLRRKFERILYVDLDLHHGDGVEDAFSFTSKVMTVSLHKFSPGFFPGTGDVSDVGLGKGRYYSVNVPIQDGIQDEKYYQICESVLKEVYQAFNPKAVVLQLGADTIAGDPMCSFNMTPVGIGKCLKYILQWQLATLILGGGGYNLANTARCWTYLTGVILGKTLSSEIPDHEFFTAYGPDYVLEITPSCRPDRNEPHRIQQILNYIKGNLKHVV

[7] = target: T1, Histone deacetylase 1; assay: Inhibition of HDAC1 (unknown origin) using p53 residues 379 to 382 [RHKK(Ac)] as fluorogenic substrate
[8] = tested on: HL-60; assay: Downregulation of HDAC2 protein expression in human HL-60 cells by Western blot analysis; assay type: functional, cell-based; conditions: dose 0.2-5 µM
[9] = target: Class 1 histone deacetylase (Homo sapiens) (UniProt Q13547+O15379+Q92769+Q9BY41); assay: Inhibition of class 1 HDAC in human HL-60 cells assessed as upregulation of acetyl histone H3 protein expression 0.5 to 1 times IC50 by Western blot analysis; assay type: cell-based
[10] = tested on: HL-60; assay: Induction of apoptosis in human HL-60 cells assessed as cell blebbing at 0.5 to 1 times IC50 by DAPI staining based microscopic analysis; assay type: functional
[11] = tested on: HL-60; assay: Induction of apoptosis in human HL-60 cells assessed as disintegration of mitochondrial nuclear condensation at 0.5 to 1 times IC50 by DAPI staining based microscopic analysis; assay type: functional, cell-based

NC(=O)c1cccc2[nH]c(-c3ccc(NCc4ccc(C(=O)Nc5ccccc5N)cc4)cc3)nc12
Activity [1]: 31.3%
Activity [2]: 12.8%
Activity [3]: 111%
Activity [4]: 101%
Activity [5]: 101%
Activity [6]: 99.5%
IC50 [7]: 0.05 µM
Activity [8]: Dose-Dependent Effect
inhibition [9]: Active
Activity [10]: inactive
Activity [11]: inactive
